Measured values from patent publication US7582609B2, “Method for the treatment of skin fibrosis and suitable compositions for such treatment” (Digna Biotech, S.L., priority 2006, dated 2009).
Ends that are not written are not given here.

Test system: bleomycin-induced skin sclerosis
Details: mouse, in vivo
Method: Two emulsions or creams were prepared, an emulsion containing peptide P144 and a control emulsion with the vehicle for administration but without P144.
The control emulsion with the vehicle for administration was prepared by a procedure that starts with mixing of the components that are shown below in Table 2:
Next, this mixture was heated at 70° C. and was emulsified with 44.4 g of distilled water (also at 70° C.).
The emulsion containing the P144 was prepared as previously, except that the 44.4 g of water was replaced with a mixture of 44.28 g of water plus 0.010 g of P144 previously dissolved in 100 μl of dimethylsulphoxide.
The test was carried out using 6-week-old female C3H mice, supplied by Harlan SL (Spain). Development of skin sclerosis in the mice was induced by the administration of bleomycin (Sigma, Spain) dissolved in PBS at a concentration of 100 μg/ml and sterilized by filtration. The mice were injected with the bleomycin subcutaneously in the skin of the back, previously shaved, at daily doses of 100 μl of the solution in PBS injected with size 27 needles. […]
The thickness of the dermis was measured on the digitized images of the sections stained with haematoxylin and eosin, and then the percentage variation in thickness of the dermis was calculated relative to the mean of the values obtained for the mice treated with PBS, adjusted to 100%. […]

With TSLDASIIWAMMQN [Peptide P144] the “morphological changes in the epidermis” value was “No changes were observed” and the “signs of systemic toxicity” value was “without signs of systemic toxicity”.
